Laboratory results as given in US20240294881A1, “CELL CULTURE SUPPLEMENT FOR PRODUCING STEM CELLS, AND METHOD FOR PRODUCING STEM CELLS” (OPTICELL, INC, priority 2021, published 2024).

How the values were obtained:
[1] = tested on: canine tubule-derived MDCK II cells; experiment: Inhibition of induction of apoptosis, Caspase-3/7 activity assay in spheroids; type: cell-based; conditions: U- and V-bottom 96-well plates coated with 0.5% solution diluted 4-fold and 8-fold; day 3 and day 6; concentration-dependent, more pronounced on day 6
Method: An aqueous solution of the polypeptide represented by formula (1) was added in two different concentrations (prepared by diluting a 0.5% solution 4-fold and 8-fold) at 100 μL/well and 200 μL/well respectively to two 96-well cell culture plates with different bottom shapes (plate #163320 with a U-shaped bottom; Corning, NY, USA, and plate #277143 with a V-shaped bottom; Thermo Fisher Scientific, MA, USA) and allowed to stand overnight at 4° C. Thereafter, the excess cell culture supplement was removed, and the remaining solution was dried in a clean bench for about 6 hours to complete the treatment with the cell culture supplement. […] After three days and six days, the apoptosis activity per well was measured by using a Caspase activity assay kit (Apo-ONE Homogeneous Caspase-3/7 Assay kit; Promega, WI, USA). […] Thereafter, 100 μL of the culture fluid was transferred to a black 96-well cell culture plate (#237105; Thermo Fisher Scientific, MA, USA), and the value of fluorescence at 590 nm (excitation light at 560 nm) was measured with a plate reader. The value determined by subtracting the value for reagent-only with no cells (blank value) from a measured value was considered to be the measured value for each day of culture, and the values compared to those of the plate not coated with the aqueous solution of the polypeptide represented by formula (1) (control) were plotted.

[2] = tested on: healthy human adult skin fibroblasts; experiment: Real-time PCR of stem cell and triploblastic marker genes in adult skin fibroblast spheroids; type: cell-based; conditions: day 20 of 3D spheroid culture, ΔΔCt
Method: An aqueous solution of the polypeptide represented by formula (1) (0.125%) (cell culture supplement) was added to a commercial polystyrene-made 96-well round-bottom culture vessel (Nuncion Delta 96U Bottom, Thermo Fisher Scientific) and allowed to stand at 4° C. for 24 hours. The cell culture supplement solution was then removed and the coated cell culture supplement was dried in a dryer at 37° C. for 96 hours to complete the cell culture supplement coating process. Healthy human adult skin fibroblasts (Lonza, normal human dermal fibroblast-adult, referred to as “adult skin fibroblasts” below) were maintained and cultured in a serum-free medium (Fujifilm Wako Pure Chemical Corporation; DMEM/F12 medium, human serum albumin recombinant 0.5 mg/mL, human transferrin recombinant 10 μg/mL, basic-FGF 5 ng/ml, and insulin 2.5 μg/mL). Adult skin fibroblasts floating in 100 μL of the medium were seeded in the 96-well round-bottom culture vessel coated with the cell culture supplement at 2×10^4 cells/well and cultured at 37° C. under 5% CO2 conditions.
The detection of stem cell marker genes was performed by analysis of the expression of mRNA by real-time PCR. Specifically, on day 20 from the start of culture, spheroids were collected in a 15-mL centrifuge tube and centrifuged, followed by washing the cells with phosphate buffered saline(−) and collecting the cells. Cells two-dimensionally cultured in a culture vessel not treated with the cell culture supplement (control) (day 0) were washed with PBS (−) after removal of the medium. The cells were detached from the plate with 0.05% trypsin-EGTA and dissociated, followed by collecting the cells in a 15-mL centrifuge tube and washing again with PBS(−) again. A NucleoZOL (Macherey-Nagel) reagent was added to the spheroids, and RNA was extracted according to the protocol recommended by the reagent manufacturer and determined to be template RNA. For real-time PCR analysis, PCR probes from QuantiFast Probe RT-PCR Kits (QIAGEN; No. 204454) and TaqMan Gene Expression Assay Probe (Thermo Fisher Scientific) were used. PCR analysis was performed with a Rotor-Gene Q (QIAGEN) apparatus. For detection of genes, three transcription factors were used as probes for detecting the expression of undifferentiated stem cell marker genes: SOX2 (sex-determining region Y-box 2), OCT4 (octamer binding transcription factor 4), and NANOG (homeodomain transcription factor); and β-actin was used as an endogenous control gene (FIG. 13).
To determine whether stem cells induced in spheroids can differentiate into primordial three germ layers, the expression of triploblastic marker genes was examined by real-time PCR. For probes for detection, the following four triploblastic marker genes were used: SOX17 (sex-determining region Y-box 17; endoderm), GATA6 (GATA family of zinc finger transcription factors; endoderm), HAND1 (heart-and neural crest derivatives-expressed protein 1; mesoderm), and SOX1 (HMG-box (high mobility group) DNA-binding domain; ectoderm). For an endogenous control gene, TaqMan Gene Expression Assay Probe (ß-actin) was used (FIG. 14). In the gene expression analysis, relative quantification was performed according to the ΔΔCt method (Delta Delta Ct method). The results of analysis according to the ΔΔCt method show the amount of a gene expressed by control cells under the conditions of “no cell culture supplement, flat-bottom 2D growth, day 0” as “1.0” in relative terms, and the increase rate in “the expression level in spheroid proliferation on day 20” was determined by comparison.

## (Pro-Hyp-Gly)n [cell culture supplement]
[1]
  apoptosis (Caspase-3/7 activity) compared with uncoated plate: inhibited
[2]; 2D control cells = 1.0
  NANOG gene expression level (increase vs control): 50.5 fold
  OCT4 gene expression level (increase vs control): 13.0 fold
  SOX2 gene expression level (increase vs control): 9.4 fold
[2]; control cells = 1.0
  GATA6 gene expression level (increase vs control): 2.2 fold
  HAND1 gene expression level (increase vs control): 33.9 fold
  SOX1 gene expression level (increase vs control): 7.1 fold
  SOX17 gene expression level (increase vs control): 11.4 fold
